Results published in ChEMBL document CHEMBL2074265, “Isolation and characterization of Caco-2 subclones expressing high levels of multidrug resistance protein efflux transporter” (Pharm Res, 2003).

Target: ATP-dependent translocase ABCB1 (Homo sapiens, UniProt P08183)
Sequence (P08183 whole entry): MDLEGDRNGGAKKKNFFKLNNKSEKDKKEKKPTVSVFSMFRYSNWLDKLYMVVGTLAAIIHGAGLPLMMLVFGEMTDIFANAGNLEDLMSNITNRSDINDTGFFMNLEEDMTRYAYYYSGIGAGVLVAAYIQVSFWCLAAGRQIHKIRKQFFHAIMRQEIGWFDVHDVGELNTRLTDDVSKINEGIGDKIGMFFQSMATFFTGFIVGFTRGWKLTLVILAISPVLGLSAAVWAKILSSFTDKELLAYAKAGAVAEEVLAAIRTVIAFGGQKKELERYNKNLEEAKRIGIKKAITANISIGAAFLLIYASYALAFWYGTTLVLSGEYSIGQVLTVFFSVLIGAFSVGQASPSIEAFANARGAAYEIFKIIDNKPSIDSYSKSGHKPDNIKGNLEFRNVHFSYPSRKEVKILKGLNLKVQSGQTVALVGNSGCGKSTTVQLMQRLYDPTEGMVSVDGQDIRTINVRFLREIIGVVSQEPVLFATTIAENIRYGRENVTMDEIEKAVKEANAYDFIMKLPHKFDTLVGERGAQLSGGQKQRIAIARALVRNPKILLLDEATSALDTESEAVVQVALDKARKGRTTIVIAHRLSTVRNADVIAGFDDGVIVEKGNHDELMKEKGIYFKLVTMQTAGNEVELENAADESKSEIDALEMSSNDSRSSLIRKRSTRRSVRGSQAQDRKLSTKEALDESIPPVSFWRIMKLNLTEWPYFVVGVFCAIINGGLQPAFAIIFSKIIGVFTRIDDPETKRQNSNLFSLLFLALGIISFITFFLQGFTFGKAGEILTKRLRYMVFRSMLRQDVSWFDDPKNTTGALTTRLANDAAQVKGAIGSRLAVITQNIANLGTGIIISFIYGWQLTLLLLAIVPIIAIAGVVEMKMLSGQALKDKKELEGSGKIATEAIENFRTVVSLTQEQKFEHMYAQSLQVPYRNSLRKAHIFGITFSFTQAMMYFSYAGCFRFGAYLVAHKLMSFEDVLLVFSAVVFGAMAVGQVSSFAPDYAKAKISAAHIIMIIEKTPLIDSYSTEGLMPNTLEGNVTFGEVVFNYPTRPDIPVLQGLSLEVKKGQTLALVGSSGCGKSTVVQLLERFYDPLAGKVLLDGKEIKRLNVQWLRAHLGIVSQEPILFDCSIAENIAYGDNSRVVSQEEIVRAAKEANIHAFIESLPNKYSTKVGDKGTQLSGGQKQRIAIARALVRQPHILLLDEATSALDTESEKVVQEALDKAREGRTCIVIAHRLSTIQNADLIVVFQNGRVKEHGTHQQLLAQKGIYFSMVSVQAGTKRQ
Description: TP_TRANSPORTER: transepithelial transport of digoxin (basal to apical) in Caco-2 cells

SMILES: COC(=O)[C@H]1[C@H]2C[C@@H]3c4[nH]c5cc(OC)ccc5c4CCN3C[C@H]2C[C@@H](OC(=O)c2cc(OC)c(OC)c(OC)c2)[C@@H]1OC [RESERPINE]
- Ki: 2310 nM
